Assay results taken from patent US4185015A, “Methoxymethyl 6-[D-2,2-dimethyl-4-(4-hydroxyphenyl)-5-oxo-1-imidazolyl]penicillanate” (priority 1977, dated 1980).
Like-named read-outs stand apart in the source and are kept apart here.

Experiments:
[1] = Oral absorption in man, BL-P1780 Study 101; conditions: for Cmax: saliva
Protocol: (§1) Only the latter are biologically active per se. Also, both original ester and parent penicillin were measured.
Three formulations were each administered once orally to six (6) healthy adult male subjects in BL-P1780 Study 101 as follows:
A. BL-P1780, 500 mg. (of amoxicillin-equivalent activity) as two 250 mg. buffered tablets.
B. BL-P1780, 500 mg. (an amoxicillin-equivalent activity) as two 250 mg. buffered tablets with 3.5 g. sodium bicarbonate being taken five minutes prior to the adminstration of BL-P1780.
C. Amoxicillin, 500 mg. as two 250 mg. capsules.
1. To investigate the human safety and tolerance of single 500 mg. doses of BL-P1780.
2. To determine the effect of intragastric buffering with sodium bicarbonate on the absorption of BL-P1780.
3. To compare amoxicillin plasma and saliva concentrations and urinary excretion between BL-P1780 and amoxicillin.

[2] = in vivo, po
Protocol: as §1

[3] = Bioassay of amoxicillin from the ester; conditions: 20 mg. ester in 10 ml. of 50/50 acetone/pH 7.0 buffer
Str. pyogenes = assay: MIC in Nutrient Broth (Table III); type: cell-based; conditions: Streptococcus pyogenes, 10^-3 dilution of overnight broth culture, 45% AAB, 5% serum, 50% broth
Excerpt: (§2) Organism in Nutrient Broth
(§3) *45% AAB 5% serum 50% broth listed above,
(§4) **Dilution of overnight broth culture

Str. pneumoniae = assay: MIC in Nutrient Broth (Table III); type: cell-based; conditions: Streptococcus pneumoniae, 10^-3 dilution of overnight broth culture, 45% AAB, 5% serum, 50% broth
Excerpt: as §2, §3, §4

S. aureus Smith = assay: MIC in Nutrient Broth (Table III); type: cell-based; conditions: Staphylococcus aureus, S. aureus Smith (10^-4)
Excerpt: as §2, §4

Pr. morganii = assay: MIC in Nutrient Broth (Table III); type: cell-based; conditions: Morganella morganii
Excerpt: as §2, §4

Ps. aeruginosa = assay: MIC in Nutrient Broth (Table III); type: cell-based; conditions: Pseudomonas aeruginosa
Excerpt: as §2, §4

K. pneumoniae = assay: MIC in Nutrient Broth (Table III); type: cell-based; conditions: Klebsiella pneumoniae
Excerpt: as §2, §4

S. aureus Meth.-Res. = assay: MIC in Nutrient Broth (Table III); type: cell-based; conditions: Staphylococcus aureus
Excerpt: as §2, §4

E. coli = assay: MIC in Nutrient Broth (Table III); type: cell-based; conditions: Escherichia coli; E. coli (10^-4)
Excerpt: as §2, §4

S. aureus BX1633 = assay: MIC in Nutrient Broth (Table III); type: cell-based; conditions: Staphylococcus aureus
Excerpt: as §2, §4

Pr. mirabilis = assay: MIC in Nutrient Broth (Table III); type: cell-based; conditions: Proteus mirabilis; Pr. mirabilis (10^-4)
Excerpt: as §2, §4

Sal. enteritidis = assay: MIC in Nutrient Broth (Table III); type: cell-based; conditions: Salmonella enterica; Sal. enteritidis (10^-4)
Excerpt: as §2, §4

Ent. cloacae = assay: MIC in Nutrient Broth (Table III); type: cell-based; conditions: Enterobacter cloacae, Ent. cloacae (10^-4)
Excerpt: as §2, §4

E. coli Juhl = assay: MIC in Nutrient Broth (Table III); type: cell-based; conditions: Escherichia coli; E. coli Juhl (10^-4)
Excerpt: as §2, §4

Ser. marcescens = assay: MIC in Nutrient Broth (Table III); type: cell-based; conditions: Serratia marcescens; Ser. marcescens (10^-4)
Excerpt: as §2, §4

S. aureus = assay: MIC in Nutrient Broth (Table III); type: cell-based; conditions: Staphylococcus aureus; S. aureus+50% serum (10^-4)
Excerpt: as §2, §4

[4] = man, oral 500 mg., six subjects

## CC1(C)S[C@@H]2[C@H](NC(=O)[C@H](N)c3ccc(O)cc3)C(=O)N2[C@H]1C(=O)O [amoxicillin, D-6-(p-hydroxy-α-aminophenylacetamido)penicillanic acid]
[1]; human, po, 500 mg, maximum saliva amoxicillin level, man, oral 500 mg.
  Cmax: 60 ng/mL
[1]; human, po, 500 mg, mean peak saliva amoxicillin level, man, oral 500 mg.
  Cmax: 30 ng/mL
[1]; human, urine, po, 500 mg
  dose excreted at 24 h: 50.9%
[1]; man, oral 500 mg.
  time course of saliva amoxicillin levels: delayed and erratic
[1]; [4]
  subjects found to be slow absorbers: Two of the six subjects
  subjects with detectable saliva amoxicillin levels: only 3 of the 6 subjects

## COCOC(=O)[C@@H]1N2C(=O)[C@@H](N3C(=O)[C@@H](c4ccccc4)NC3(C)C)[C@H]2SC1(C)C [BL-P1761, methoxymethyl ester of hetacillin]
[2]
  hydrolysis of the ester: hydrolyze eventually to their parent penicillins

## COCOC(=O)[C@@H]1N2C(=O)[C@@H](NC(=O)[C@H](N)c3ccc(O)cc3)[C@H]2SC1(C)C [Example 5, methoxymethyl ester of amoxicillin]
[3]
  bioassay of amoxicillin: 1968 µg/mL
  bioassay of amoxicillin, percent of theory: about 110 % of theory

## CC1(C)S[C@@H]2[C@H](NC(=O)[C@H](N)c3ccccc3)C(=O)N2[C@H]1C(=O)O [Sodium Ampicillin]
Str. pyogenes
  MIC: 0.008 µg/mL
Str. pneumoniae
  MIC: 0.016 µg/mL
S. aureus Smith
  MIC: 0.06 µg/mL
Pr. morganii
  MIC: > 125 µg/mL
Ps. aeruginosa
  MIC: > 125 µg/mL
K. pneumoniae
  MIC: 125 µg/mL
K. pneumoniae; K. pneumoniae (10^-4), first of two lines, read-out: MIC
  MIC: 0.5 µg/mL
S. aureus Meth.-Res.
  MIC: > 125 µg/mL
S. aureus Meth.-Res.; S. aureus Meth.-Res. (10^-3), 37° C., read-out: MIC
  MIC: 32 µg/mL
E. coli
  MIC: 16 µg/mL
S. aureus BX1633; BX1633
  MIC: > 125 µg/mL
S. aureus BX1633; BX1633, S. aureus BX1633 (10^-3), read-out: MIC
  MIC: 32 µg/mL
Pr. mirabilis
  MIC: 0.25 µg/mL
Sal. enteritidis
  MIC: 0.13 µg/mL
Ent. cloacae; first of three lines
  MIC: > 125 µg/mL
Ent. cloacae; second of three lines, read-out: MIC
  MIC: 32 µg/mL
Ent. cloacae; third of three lines, read-out: MIC
  MIC: 63 µg/mL
E. coli Juhl
  MIC: 2 µg/mL
Ser. marcescens
  MIC: 32 µg/mL
S. aureus
  MIC: 0.13 µg/mL
